# In patent US12091402B2 (Avilar Therapeutics, Inc., priority 2021, dated 2024):
# Where a SMILES comes first, the peptide text is derived from it. Bridges are numbered along the chain shown (N, C = ends). The star is where a group is joined. X3 = O=C(CCOCC(COCCC(=O)NCCOCCOCCOCCOC[C@@]12CO[C@@H](O1)[C@H](Nc1nc(Cl)ns1)[C@@H](O)[C@H]2O)NC(=O)CCCCCn1cc(CCCC(=O)*)nn1)NCCOCCOCCOCCOC[C@@]12CO[C@@H](O1)[C@H](Nc1nc(Cl)ns1)[C@@H](O)[C@H]2O; PEG4 = NCCOCCOCCOCCOCCC(=O)O
# Biological target: T1, ASGPR (Homo sapiens, UniProt P07306)
# T1 sequence (P07306 1-291): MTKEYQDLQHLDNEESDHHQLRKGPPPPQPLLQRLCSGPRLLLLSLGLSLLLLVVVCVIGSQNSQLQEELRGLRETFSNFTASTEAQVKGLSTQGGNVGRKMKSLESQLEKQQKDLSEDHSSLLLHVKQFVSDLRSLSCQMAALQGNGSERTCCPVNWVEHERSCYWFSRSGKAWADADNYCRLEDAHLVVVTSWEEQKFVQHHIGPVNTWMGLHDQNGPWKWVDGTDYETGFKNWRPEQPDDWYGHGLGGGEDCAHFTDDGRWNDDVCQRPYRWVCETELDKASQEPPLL
# Assay: Affinity to ASGPR by surface plasmon resonance (SPR)
row,SMILES,Kd [nM]
1,"O=C(O)CC(=O)NC(COCCC(=O)NCCOCCOCCOCCOC[C@H]1OC[C@H](Nc2cncc(C(F)(F)F)n2)[C@@H](O)[C@H]1O)COCCC(=O)NCCOCCOCCOCCOC[C@H]1OC[C@H](Nc2cncc(C(F)(F)F)n2)[C@@H](O)[C@H]1O [A34, 1-((2R,3R,4R,5S)-3,4-dihydroxy-5-((6-(trifluoromethyl)pyrazin-2-yl)amino)tetrahydro-2H-pyran-2-yl)-20-(1-((2R,3R,4R,5S)-3,4-dihydroxy-5-((6-(trifluoromethyl)pyrazin-2-yl)amino)tetrahydro-2H-pyran-2-yl)-15-oxo-2,5,8,11,18-pentaoxa-14-azanonadecan-19-yl)-15,22-dioxo-2,5,8,11,18-pentaoxa-14,21-diazatetracosan-24-oic acid]",< 100
2,CC(C)C[C@@H]1NC(=O)[C@@H](NC(=O)[C@@H](NC(=O)[C@H](CCC(N)=O)NC(=O)[C@H](Cc2c[nH]cn2)NC(=O)CCOCCOCCOCCOCCNC(=O)CCCc2cn(CCCCCC(=O)NC(COCCC(=O)NCCOCCOCCOCCOC[C@@]34CO[C@@H](O3)[C@H](Nc3nc(Cl)ns3)[C@@H](O)[C@H]4O)COCCC(=O)NCCOCCOCCOCCOC[C@@]34CO[C@@H](O3)[C@H](Nc3nc(Cl)ns3)[C@@H](O)[C@H]4O)nn2)C(C)C)CSSC[C@@H](C(=O)N[C@@H](Cc2ccccc2)C(=O)N[C@@H](CO)C(=O)N[C@H](C(N)=O)[C@@H](C)O)NC(=O)[C@H](C(C)C)NC(=O)[C@@H]2CCCN2C(=O)[C@H](CCCNC(=N)N)NC(=O)CNC(=O)[C@H](CCCNC(=N)N)NC(=O)[C@H](Cc2ccc(O)cc2)NC(=O)[C@H](CO)NC1=O [Compound 19] ({X3-PEG4}-HQVCLSYRGRPVCFST-NH2; disulfide 4-13),< 100
3,"NC[C@H]1OC[C@H](Nc2cncc(C(F)(F)F)n2)[C@@H](O)[C@H]1O [A89, (2R,3R,4R,5S)-2-(aminomethyl)-5-((6-(trifluoromethyl)pyrazin-2-yl)amino)tetrahydro-2H-pyran-3,4-diol]",< 1000
4,"O=C(O)CC(=O)NC[C@H]1OC[C@H](Nc2cncc(C(F)(F)F)n2)[C@@H](O)[C@H]1O [A32, 3-((((2R,3R,4R,5S)-3,4-dihydroxy-5-((6-(trifluoromethyl)pyrazin-2-yl)amino)tetrahydro-2H-pyran-2-yl)methyl)amino)-3-oxopropanoic acid]",< 1000
5,"N#Cc1ccnnc1N[C@H]1[C@H]2OC[C@](CO)(O2)[C@H](O)[C@@H]1O [A39, 3-[[(1S,2R,3R,4R,5S)-2,3-dihydroxy-1-(hydroxymethyl)-6,8-dioxabicyclo[3.2.1]octan-4-yl]amino]pyridazine-4-carbonitrile]",1000 to 10000
6,"N=C(N)N[C@H]1CO[C@H](COCc2ccccc2)[C@H](OCc2ccccc2)[C@@H]1OCc1ccccc1 [A73, 1-((3S,4R,5R,6R)-4,5-bis(benzyloxy)-6-((benzyloxy)methyl)tetrahydro-2H-pyran-3-yl)guanidine]",> 20000
7,"OC[C@H]1OC[C@H](Nc2nc(C(F)(F)F)ccc2F)[C@@H](O)[C@H]1O [A77, (2R,3R,4R,5S)-5-((3-fluoro-6-(trifluoromethyl)pyridin-2-yl)amino)-2-(hydroxymethyl)tetrahydro-2H-pyran-3,4-diol]",< 1000
8,"O=C(O)CC(=O)NC(COCCC(=O)NC[C@H]1OC[C@H](Nc2cncc(C(F)(F)F)n2)[C@@H](O)[C@H]1O)COCCC(=O)NC[C@H]1OC[C@H](Nc2cncc(C(F)(F)F)n2)[C@@H](O)[C@H]1O [A33, 3-((1,15-bis((2R,3R,4R,5S)-3,4-dihydroxy-5-((6-(trifluoromethyl)pyrazin-2-yl)amino)tetrahydro-2H-pyran-2-yl)-3,13-dioxo-6,10-dioxa-2,14-diazapentadecan-8-yl)amino)-3-oxopropanoic acid]",< 100
9,"C[C@@H]1O[C@H](CO)[C@H](O)[C@H](O)[C@H]1N=[N+]=[N-] [A50, (2R,3R,4R,5R,6S)-5-azido-2-(hydroxymethyl)-6-methyltetrahydro-2H-pyran-3,4-diol]",> 20000
10,"C=CCO[C@H]1O[C@H](Cn2cc(CO)nn2)[C@H](O)[C@H](O)[C@H]1NC(=O)C(F)(F)F [A63, N-((2S,3R,4R,5R,6R)-2-(allyloxy)-4,5-dihydroxy-6-((4-(hydroxymethyl)-1H-1,2,3-triazol-1-yl)methyl)tetrahydro-2H-pyran-3-yl)-2,2,2-trifluoroacetamide]",1000 to 10000
11,"COC(=N)c1cc(OC)nc(N[C@H]2CO[C@H](CO)[C@H](O)[C@@H]2O)n1 [A48, methyl 2-(((3S,4R,5R,6R)-4,5-dihydroxy-6-(hydroxymethyl)tetrahydro-2H-pyran-3-yl)amino)-6-methoxypyrimidine-4-carbimidate]",1000 to 10000
12,"O=C(O)CNC(COCCC(=O)NCCOCCOCCOCCOC[C@H]1OC[C@H](Nc2cncc(C(F)(F)F)n2)[C@@H](O)[C@H]1O)COCCC(=O)NCCOCCOCCOCCOC[C@H]1OC[C@H](Nc2cncc(C(F)(F)F)n2)[C@@H](O)[C@H]1O [A31, (1,39-bis((2R,3R,4R,5S)-3,4-dihydroxy-5-((6-(trifluoromethyl)pyrazin-2-yl)amino)tetrahydro-2H-pyran-2-yl)-15,25-dioxo-2,5,8,11,18,22,29,32,35,38-decaoxa-14,26-diazanonatriacontan-20-yl)glycine]",< 100
13,"C=CCO[C@H]1O[C@H](Cn2ccnn2)[C@H](O)[C@H](O)[C@H]1Nc1nccc(C(F)(F)F)n1 [A69, (2R,3R,4R,5R,6S)-2-((1H-1,2,3-triazol-1-yl)methyl)-6-(allyloxy)-5-((4-(trifluoromethyl)pyrimidin-2-yl)amino)tetrahydro-2H-pyran-3,4-diol]",< 1000

# Next, values leading:
row,Kd [nM],SMILES
1,> 20000,"O=C(NC[C@H]1OC[C@H](Nc2cncc(C(F)(F)F)n2)[C@@H](O)[C@H]1O)[C@H]1C[C@H]1F [A108, (1R,2R)—N-(((2R,3R,4R,5S)-3,4-dihydroxy-5-((6-(trifluoromethyl)pyrazin-2-yl)amino)tetrahydro-2H-pyran-2-yl)methyl)-2-fluorocyclopropane-1-carboxamide]"
2,< 1000,"OC[C@@]12CO[C@@H](O1)[C@H](Nc1ncc(C(F)(F)F)c(Cl)n1)[C@@H](O)[C@H]2O [A115, (1S,2R,3R,4R,5S)-4-((4-chloro-5-(trifluoromethyl)pyrimidin-2-yl)amino)-1-(hydroxymethyl)-6,8-dioxabicyclo[3.2.1]octane-2,3-diol]"
3,1000 to 10000,"O[C@@H]1[C@H](O)[C@@H](Nc2cncc(C(F)(F)F)n2)CO[C@@H]1CNc1ccccc1 [A95, (2R,3R,4R,5S)-2-((phenylamino)methyl)-5-((6-(trifluoromethyl)pyrazin-2-yl)amino)tetrahydro-2H-pyran-3,4-diol]"
4,< 1000,"OC[C@@]12CO[C@@H](O1)[C@H](Nc1nc(Cl)ncc1C(F)(F)F)[C@@H](O)[C@H]2O [A114, (1S,2R,3R,4R,5S)-4-((2-chloro-5-(trifluoromethyl)pyrimidin-4-yl)amino)-1-(hydroxymethyl)-6,8-dioxabicyclo[3.2.1]octane-2,3-diol]"
5,< 1000,"CC(=O)NC[C@H]1OC[C@H](Nc2cncc(C(F)(F)F)n2)[C@@H](O)[C@H]1O [A90, N-(((2R,3R,4R,5S)-3,4-dihydroxy-5-((6-(trifluoromethyl)pyrazin-2-yl)amino)tetrahydro-2H-pyran-2-yl)methyl)acetamide]"
